Test results from publication PMC2901217, “Flavonoids activate pregnane × receptor-mediated CYP3A4 gene expression by inhibiting cyclin-dependent kinases in HepG2 liver carcinoma cells” (BMC Biochemistry, 2010).
One block for each compound: values may come before it.

Columns and labels:
[1] = test system: PXR-mediated CYP3A4 promoter activity in HepG2 cells stably transfected with PXR and CYP3A4-luc; assay: PXR transactivation assay (CYP3A4-luc luciferase reporter); details: 24 h; for Activation of PXR-mediated CYP3A4 promoter (result in words): screen hit in HepG2 PXR/CYP3A4-luc cells; for PXR activation as % of the activity from 2 μM of rifampicin: compound below 10 μM
Method: HepG2 cells (2 × 10^4/well) stably transfected with PXR and CYP3A4-luc were seeded in 384-well plates and treated with indicated compounds for 24 h before the luciferase assay. […] Compounds were tested in quadruplicate. The bars denote the standard deviation.
Compounds were added to 384-well plates seeded with cells in a phenol red-free medium containing 5% charcoal/dextran-treated FBS and incubated for 24 h at 37°C before conducting the luciferase assay. The final concentration of DMSO in each well was maintained at 0.1%. DMSO and 2 μM of rifampicin were used as the negative and positive control, respectively. Luciferase activities were detected by using EnVision plate reader (PerkinElmer Life Sciences), as previously reported.

[2] = biological target: Cdk2 (Homo sapiens, UniProt P24941); assay: Cdk kinase profiling assay (Ambit Biosciences); assay type: binding
Method: (§1) Since flavonoids have been reported to inhibit multiple Cdks, we investigated the inhibitory effect of flavonoid apigenin on various Cdks. Apigenin inhibited multiple Cdks, including Cdk2, 4, 5, 7, 8, 9 and 11 (Table 1). […] GST was expressed and purified by using pGEX-4T-1 in Escherichia coli BL21 and was used as the negative control. The reaction mixture was incubated at 30°C for 30 min before being electrophoresed by SDS-PAGE. The gel was stained by using SimplyBlue SafeStain (Invitrogen), desiccated by the Labconco gel dryer (Labconco, Kansas City, MO), and exposed overnight to the Storage Phosphor Screen (GE Healthcare). Phosphoimages were obtained by using the Storm scanner (GE Healthcare). In vitro Cdks kinase profiling assays were performed by Ambit Biosciences (San Diego, CA) as previously described.

[3] = biological target: Cdk3 (Homo sapiens, UniProt Q00526); assay: Cdk kinase profiling assay (Ambit Biosciences); assay type: binding
Cdk3, sequence (Q00526 whole entry): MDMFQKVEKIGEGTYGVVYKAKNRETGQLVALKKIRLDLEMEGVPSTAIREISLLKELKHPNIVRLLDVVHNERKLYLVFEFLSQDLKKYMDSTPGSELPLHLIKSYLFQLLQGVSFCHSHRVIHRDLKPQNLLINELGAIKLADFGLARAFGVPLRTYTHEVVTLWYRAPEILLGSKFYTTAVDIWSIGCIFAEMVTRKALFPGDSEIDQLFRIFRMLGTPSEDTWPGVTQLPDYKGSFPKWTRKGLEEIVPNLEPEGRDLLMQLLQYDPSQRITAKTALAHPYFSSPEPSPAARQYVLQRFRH
Method: as §1

[4] = biological target: Cdk8 (Homo sapiens, UniProt P49336); assay: Cdk kinase profiling assay (Ambit Biosciences); assay type: binding
Cdk8, sequence (P49336 whole entry): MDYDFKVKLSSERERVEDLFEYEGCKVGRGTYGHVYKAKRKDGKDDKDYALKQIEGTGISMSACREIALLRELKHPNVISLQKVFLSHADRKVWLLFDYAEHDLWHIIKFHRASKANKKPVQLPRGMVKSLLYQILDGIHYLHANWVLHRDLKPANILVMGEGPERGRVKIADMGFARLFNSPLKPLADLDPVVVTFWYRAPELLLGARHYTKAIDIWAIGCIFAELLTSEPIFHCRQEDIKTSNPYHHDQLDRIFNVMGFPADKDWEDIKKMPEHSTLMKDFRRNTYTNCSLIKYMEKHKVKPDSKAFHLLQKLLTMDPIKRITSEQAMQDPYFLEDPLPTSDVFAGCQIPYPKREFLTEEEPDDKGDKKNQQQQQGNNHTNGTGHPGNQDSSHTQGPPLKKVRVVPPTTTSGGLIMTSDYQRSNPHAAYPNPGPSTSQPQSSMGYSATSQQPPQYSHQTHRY
Method: as §1

[5] = biological target: Cdk9 (Homo sapiens, UniProt P50750); assay: Cdk kinase profiling assay (Ambit Biosciences); assay type: binding
Cdk9, sequence (P50750 whole entry): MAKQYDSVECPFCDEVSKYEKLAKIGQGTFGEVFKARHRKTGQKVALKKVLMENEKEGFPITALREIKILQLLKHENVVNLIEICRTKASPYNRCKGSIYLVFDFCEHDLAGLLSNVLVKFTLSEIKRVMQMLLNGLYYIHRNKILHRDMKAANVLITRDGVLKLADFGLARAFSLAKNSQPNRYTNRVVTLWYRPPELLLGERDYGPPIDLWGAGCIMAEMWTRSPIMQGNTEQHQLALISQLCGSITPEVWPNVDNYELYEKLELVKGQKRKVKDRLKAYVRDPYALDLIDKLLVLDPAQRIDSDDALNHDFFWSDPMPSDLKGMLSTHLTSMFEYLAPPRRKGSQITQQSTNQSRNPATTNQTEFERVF
Method: as §1

[6] = biological target: Cdk11 (Homo sapiens, UniProt Q9BWU1); assay: Cdk kinase profiling assay (Ambit Biosciences); assay type: binding
Cdk11, sequence (Q9BWU1 whole entry): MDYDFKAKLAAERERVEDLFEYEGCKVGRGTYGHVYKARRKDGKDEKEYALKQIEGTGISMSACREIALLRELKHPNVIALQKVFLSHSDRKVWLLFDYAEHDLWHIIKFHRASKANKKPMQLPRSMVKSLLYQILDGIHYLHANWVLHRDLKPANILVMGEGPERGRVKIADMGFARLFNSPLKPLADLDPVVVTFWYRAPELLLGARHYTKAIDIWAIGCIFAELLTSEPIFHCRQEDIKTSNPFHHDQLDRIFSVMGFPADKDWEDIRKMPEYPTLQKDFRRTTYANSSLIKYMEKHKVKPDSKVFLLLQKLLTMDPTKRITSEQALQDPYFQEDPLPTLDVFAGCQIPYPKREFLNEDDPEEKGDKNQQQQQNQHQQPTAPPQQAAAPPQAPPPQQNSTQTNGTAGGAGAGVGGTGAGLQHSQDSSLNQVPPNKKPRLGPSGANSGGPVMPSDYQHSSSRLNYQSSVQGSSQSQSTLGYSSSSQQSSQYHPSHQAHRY
Method: as §1

[7] = biological target: Cdk5 (Homo sapiens, UniProt Q00535); assay: Cdk kinase profiling assay (Ambit Biosciences); assay type: binding
Cdk5, sequence (Q00535 whole entry): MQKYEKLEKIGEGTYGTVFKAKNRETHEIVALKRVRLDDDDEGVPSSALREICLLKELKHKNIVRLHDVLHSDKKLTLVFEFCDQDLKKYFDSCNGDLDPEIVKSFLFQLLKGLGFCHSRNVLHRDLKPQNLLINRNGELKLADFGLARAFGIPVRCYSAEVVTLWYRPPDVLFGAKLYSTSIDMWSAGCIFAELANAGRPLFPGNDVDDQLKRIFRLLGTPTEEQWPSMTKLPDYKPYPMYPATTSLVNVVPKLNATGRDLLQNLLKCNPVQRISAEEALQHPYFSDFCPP
Method: as §1

[8] = biological target: Cdk7 (Homo sapiens, UniProt P50613); assay: Cdk kinase profiling assay (Ambit Biosciences); assay type: binding
Cdk7, sequence (P50613 whole entry): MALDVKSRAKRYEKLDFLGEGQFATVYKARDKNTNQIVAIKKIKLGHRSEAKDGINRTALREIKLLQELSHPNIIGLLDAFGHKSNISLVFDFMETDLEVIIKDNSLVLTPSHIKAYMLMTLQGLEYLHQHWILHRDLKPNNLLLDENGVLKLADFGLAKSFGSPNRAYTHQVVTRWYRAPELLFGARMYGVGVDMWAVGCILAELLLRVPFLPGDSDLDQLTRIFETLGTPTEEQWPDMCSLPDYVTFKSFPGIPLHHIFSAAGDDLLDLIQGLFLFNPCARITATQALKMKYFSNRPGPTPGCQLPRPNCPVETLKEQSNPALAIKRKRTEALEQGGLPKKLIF
Method: as §1

[9] = biological target: Cdk4 (Homo sapiens, UniProt P11802); assay: Cdk kinase profiling assay (Ambit Biosciences); assay type: binding
Cdk4, sequence (P11802 whole entry): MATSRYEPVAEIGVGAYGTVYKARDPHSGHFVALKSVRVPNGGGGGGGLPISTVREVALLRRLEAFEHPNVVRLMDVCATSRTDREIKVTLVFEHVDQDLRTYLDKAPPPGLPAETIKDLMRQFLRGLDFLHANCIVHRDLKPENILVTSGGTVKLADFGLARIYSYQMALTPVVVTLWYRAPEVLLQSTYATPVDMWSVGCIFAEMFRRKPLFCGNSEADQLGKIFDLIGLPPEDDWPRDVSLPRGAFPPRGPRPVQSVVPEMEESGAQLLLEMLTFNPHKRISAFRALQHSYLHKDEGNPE
Method: as §1

[10] = test system: Cdk5-mediated inhibition of PXR-mediated CYP3A4 promoter activity in HepG2; assay: Cdk5-mediated inhibition of rifampicin-induced CYP3A4 promoter activity (transient co-transfection, Dual-glo luciferase); assay type: cell-based, human; details: p < 0.001
Method: Next, we determined the functional correlation between the activities of Cdk5 and PXR. […] A total of 20 μg of combined plasmids was used to transfect 5 × 10^6 cells seeded in a T75 flask 16 h before transfection. Transfected cells were seeded into white 96-well plates (at 10,000 cells/well) 24 h later, and treated with DMSO or compounds as indicated for 24 h before Dual-glo luciferase assay. CYP3A4 promoter activity was normalized by using activity of the CMV-renilla, and expressed as fold induction over control (DMSO; without Cdk5 transfection). […] The significance of the difference between datasets was determined by using the Student's t test.

[11] = biological target: T1, GST-hPXR ligand-binding domain (Homo sapiens, UniProt O75469)
T1 sequence (O75469 146-433 limits assumed): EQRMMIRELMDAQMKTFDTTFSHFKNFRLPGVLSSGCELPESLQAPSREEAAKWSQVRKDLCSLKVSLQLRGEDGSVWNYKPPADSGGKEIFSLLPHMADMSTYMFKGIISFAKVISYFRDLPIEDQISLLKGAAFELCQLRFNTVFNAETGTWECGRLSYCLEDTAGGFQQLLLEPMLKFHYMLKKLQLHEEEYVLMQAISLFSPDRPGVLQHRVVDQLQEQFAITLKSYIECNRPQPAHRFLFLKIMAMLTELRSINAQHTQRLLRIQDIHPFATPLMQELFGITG
Method: The time-resolved fluorescence resonance transfer (TR-FRET) PXR competitive binding assay was performed as described previously [9]. Briefly, the assays were performed in a volume of 20 μl in 384-well solid black plates with 5 nM GST-hPXR ligand-binding domain, 40 nM fluorescent-labeled hPXR agonist (Fluomore PXR Green), 5 nM terbium-labeled anti-GST antibody, and test compound at different concentrations. […] Curves were generated by using GraphPad Prism 4.0 (GraphPad Software, La Jolla, CA).

Structure (SMILES): COc1ccc(-c2coc3cc(O)cc(O)c3c2=O)cc1 [biochanin A]
Activation of PXR-mediated CYP3A4 promoter (result in words) [1]: potent activators

Structure (SMILES): COc1cc(O)c2c(=O)c(-c3ccc(O)cc3)coc2c1 [prunetin]
Activation of PXR-mediated CYP3A4 promoter (result in words) [1]: potent activators

Structure (SMILES): O=c1c(-c2ccc(O)cc2)coc2cc(O)cc(O)c12 [genistein]
Activation of PXR-mediated CYP3A4 promoter (result in words) [1]: potent activators

Structure (SMILES): O=c1c(-c2ccc(O)cc2)coc2cc(O)ccc12 [daidzein]
Activation of PXR-mediated CYP3A4 promoter (result in words) [1]: potent activators

Structure (SMILES): CCCC[C@@H](C=O)NC(=O)[C@H](CC(C)C)NC(=O)OCc1ccccc1 [calpeptin, reference compound]
Concentration as potent as 2 μM of rifampicin in inducing PXR activity ([1]; HepG2 PXR/CYP3A4-luc): 4.4 µM
Effect on inhibitory effect of Cdk5 on CYP3A4 promoter activity (result in words) [10]: decreased the inhibitory effect of Cdk5

Continued, values first:

PXR activation, times more effective than 2 μM rifampicin ([1]; compound at 40 μM, versus 2 μM rifampicin): 7 times
PXR activation as % of the activity from 2 μM of rifampicin [1]: more than 50%
Activation of PXR-mediated CYP3A4 promoter (result in words) [1]: potent activators
Structure (SMILES): O=c1cc(-c2ccc(O)c(O)c2)oc2cc(O)cc(O)c12 [luteolin]

Kd [2]: 9.8 µM
Kd [3]: > 30 µM
Kd [4]: 5.8 µM
Kd [5]: 2 µM
Kd [6]: 3 µM
Kd [7]: 3.9 µM
Kd [8]: 1.7 µM
Kd [9]: 7 µM
PXR activation as % of the activity from 2 μM of rifampicin [1]: more than 50%
Activation of PXR-mediated CYP3A4 promoter (result in words) [1]: potent activators
Structure (SMILES): O=c1cc(-c2ccc(O)cc2)oc2cc(O)cc(O)c12 [apigenin]

Activation of PXR-mediated CYP3A4 promoter (result in words) [1]: potent activators
Binding to PXR (result in words) [11]: did not bind
Structure (SMILES): O=c1cc(-c2ccccc2)oc2cc(O)cc(O)c12 [chrysin]
